Active and inactive are the calls of the source. The calls are words filed in the database; no cut-off is given here.
Columns and labels:
[1] = system: CCRF-CEM; experiment: Induction of apoptosis in human CEM cells assessed as PARP-1 cleavage at 15 uM after 24 hrs by Western blot analysis; type: functional, cell-based
[2] = system: CCRF-CEM; experiment: Antiproliferative activity against human CEM cells assessed as reduction in cell viability after 72 hrs by resazurin dye based assay; type: functional
[3] = system: CCRF-CEM; experiment: Induction of apoptosis in human CEM cells assessed as increase in relative activity of caspase-3/7 at 15 uM using AC-DEVD-AMC as substrate after 24 hrs by fluorescence based assay; type: functional, cell-based
[4] = system: HeLa; experiment: Antiproliferative activity against human HeLa cells assessed as reduction in cell viability after 72 hrs by resazurin dye based assay; type: functional
[5] = system: BJ; experiment: Cytotoxicity against human BJ cells assessed as reduction in cell viability after 72 hrs by resazurin dye based assay
[6] = system: CCRF-CEM; experiment: Induction of apoptosis in human CEM cells assessed as caspase-7 fragmentation at 15 uM after 24 hrs by Western blot analysis; type: functional, cell-based
[7] = system: CCRF-CEM; experiment: Cell cycle arrest in human CEM cells assessed as accumulation of cells at sub-G1 phase at 15 uM after 24 hrs by RNase A/propidium iodide staining-based flow cytometric analysis; type: functional
[8] = system: A2780; experiment: Antiproliferative activity against human A2780 cells assessed as reduction in cell viability after 72 hrs by resazurin dye based assay; type: functional; conditions: A2780, 72 h
[9] = system: MCF7; experiment: Antiproliferative activity against human MCF7 cells assessed as reduction in cell viability after 72 hrs by resazurin dye based assay; type: functional; conditions: MCF7, 72 h
[10] = target: T1, Sodium/potassium-transporting ATPase (Sus scrofa) (UniProt P05027+P05024+D2WKD8+D2WKD7+F1ST41); experiment: Inhibition of porcine kidney Na+/K+-ATPase assessed as residual activity at 50 uM preincubated for 2 mins followed by ATP addition and measured after 6 mins by bagin-sky assay relative to untreated control; type: protein-complex assay
[11] = system: CCRF-CEM; experiment: Cell cycle arrest in human CEM cells assessed as increase in cell population at G0/G1 phase at 15 uM after 24 hrs by RNase A/propidium iodide staining-based flow cytometric analysis; type: functional
[12] = system: CCRF-CEM; experiment: Cell cycle arrest in human CEM cells assessed as reduction in cell population at S phase at 15 uM after 24 hrs by RNase A/propidium iodide staining-based flow cytometric analysis; type: functional
[13] = system: Hep 3B2; experiment: Antiproliferative activity against human Hep3B cells assessed as reduction in cell viability after 72 hrs by resazurin dye based assay; type: functional
[14] = system: CCRF-CEM; experiment: Effect on cell cycle analysis in human CEM cells at 15 uM after 24 hrs by RNase A/propidium iodide staining-based flow cytometric analysis; type: functional
[15] = system: CCRF-CEM; experiment: Induction of apoptosis in human CEM cells assessed as decrease in Mcl-1 expression at 15 uM after 24 hrs by Western blot analysis; type: functional, cell-based
[16] = system: CCRF-CEM; experiment: Induction of apoptosis in human CEM cells assessed as increase in relative activity of caspase-3/7 at 15 uM using AC-DEVD-AMC as substrate after 24 hrs by fluorescence based assay relative to untreated control; type: functional
[17] = target: T1, Sodium/potassium-transporting ATPase (Sus scrofa); experiment: Inhibition of porcine kidney Na+/K+-ATPase at 50 uM preincubated for 2 mins followed by ATP addition and measured after 6 mins by bagin-sky assay relative to Olean-drigenin; type: protein-complex assay
[18] = system: CCRF-CEM; experiment: Cell cycle arrest in human CEM cells assessed as decrease in cell population at G0/G1 phase at 15 uM after 24 hrs by RNase A/propidium iodide staining-based flow cytometric analysis; type: functional
[19] = system: CCRF-CEM; experiment: Cell cycle arrest in human CEM cells assessed as increase in accumulation of cells in G2/M phase after 24 hrs by RNase A/propidium iodide staining-based flow cytometric analysis; type: functional
[20] = system: CCRF-CEM; experiment: Cell cycle arrest in human CEM cells assessed as increase in accumulation of cells in S phase after 24 hrs by RNase A/propidium iodide staining-based flow cytometric analysis; type: functional

Compound	Activity [1]	IC50 [2]	Activity [3]	IC50 [4]	IC50 [5]	Activity [6]	Activity [7]	IC50 [8]	IC50 [9]	Activity [10]	Activity [11]	Activity [12]	IC50 [13]	Activity [14]	Activity [15]	fold change (FC) [16]	inhibition [17]	Activity [18]	Activity [19]	Activity [20]
CO[C@H]1CC[C@@]2(C)[C@@H](CC[C@@H]3[C@@H]2CC[C@]2(C)[C@@H](C4=CC(=O)OC4)[C@@H](O)C[C@]32O)C1	Active	14.1 µM	inactive	> 50 µM	> 50 µM	Active	Active	> 50 µM	> 50 µM	25%	–	–	–	–	–	–	–	–	–	–
CO[C@H]1CC[C@@]2(C)[C@@H](CC[C@@H]3[C@@H]2CC[C@]2(C)[C@@H](C4=CC(=O)OC4)[C@@H](O)[C@H]4O[C@]342)C1	–	> 50 µM	–	> 50 µM	> 50 µM	–	–	> 50 µM	> 50 µM	75%	Active	Active	–	–	–	–	–	–	–	–
CC(=O)O[C@H]1C[C@]2(O)[C@@H]3CC[C@@H]4C[C@@H](O)CC[C@]4(C)[C@H]3CC[C@]2(C)[C@H]1C1=CC(=O)OC1	–	0.2 µM	–	0.2 µM	0.1 µM	–	–	–	0.8 µM	75%	–	–	–	–	–	–	–	–	–	–
CO[C@H]1CC[C@@]2(C)[C@@H](CC[C@@H]3[C@@H]2CC[C@]2(C)[C@@H](c4ccoc4)[C@@H](O)[C@H]4O[C@]342)C1	–	36.4 µM	–	11.9 µM	> 50 µM	–	–	18.4 µM	50 µM	101%	–	–	27.2 µM	–	–	–	–	–	–	–
CO[C@H]1CC[C@@]2(C)[C@@H](CC[C@@H]3[C@@H]2CC[C@]2(C)[C@@H](c4ccoc4)[C@@H](OC(C)=O)C[C@]32O)C1	–	> 50 µM	–	> 50 µM	> 50 µM	–	–	> 50 µM	> 50 µM	75%	–	–	> 50 µM	inactive	–	–	–	–	–	–
CO[C@H]1CC[C@@]2(C)[C@@H](CC[C@@H]3[C@@H]2CC[C@]2(C)[C@@H](C4=CC(=O)OC4)[C@@H](OC(C)=O)[C@@H]4O[C@@]342)C1	Active	1.3 µM	–	17.5 µM	5.7 µM	Active	Active	4.9 µM	4.4 µM	104%	–	–	> 50 µM	–	Active	<=19	–	–	–	–
CO[C@H]1C[C@H](O[C@H]2CC[C@@]3(C)[C@H](CC[C@@H]4[C@@H]3CC[C@]3(C)[C@@H](C5=CC(=O)OC5)[C@@H](OC(C)=O)C[C@]43O)C2)O[C@@H](C)[C@@H]1O [OLEANDRIN]	–	0.019 µM	–	0.062 µM	0.026 µM	–	–	–	0.033 µM	49%	–	–	–	–	–	–	25%	–	–	–
CO[C@H]1CC[C@@]2(C)[C@@H](CC[C@@H]3[C@@H]2CC[C@]2(C)[C@@H](C4=CC(=O)OC4)[C@@H](OC(C)=O)C[C@]32O)C1	Active	5.8 µM	Active	14.8 µM	7.9 µM	Active	Active	5.9 µM	21.1 µM	24%	–	–	7.7 µM	–	–	–	–	Active	Dose-dependent effect	Dose-dependent effect
CO[C@H]1CC[C@@]2(C)[C@@H](CC[C@@H]3[C@@H]2CC[C@]2(C)[C@@H](C4=CC(=O)OC4)[C@@H](OC(C)=O)[C@H]4O[C@]342)C1	Active	2.5 µM	Active	11.3 µM	4.5 µM	Active	Active	1.7 µM	7.6 µM	25%	–	–	–	–	Active	–	–	–	–	–

Reference: ChEMBL document CHEMBL4364315, “Synthesis and evaluation of cytotoxic and Na+/K+-ATP-ase inhibitory activity of selected 5α-oleandrigenin derivatives” (Eur J Med Chem, 2019)
